Experimental data reported in patent publication US20240285670A1, “THERAPEUTIC TREATMENT OF TUMORS BY BLOCKING THE HEME SYNTHESIS-EXPORT AXIS” (Università degli Studi di Torino, priority 2021, published 2024).

Columns and labels:
Caco2 cells [1] = assay: Flow cytometric analysis of apoptosis in Caco2 cells; format: cell-based, human; conditions: FLVCR1a-silenced vs scramble shRNA, synchronized Caco2 cells
Text: (A) Proliferation of Caco2 cells assessed by crystal violet staining at the indicated days; bar=1000 μm. […] Staining quantification is reported in the bar graph as percentage of crystal violet stained area. Data represent mean±SEM, n=4. For statistical analyses, a two-way analysis of variance was used, followed by the Bonferroni correction for multiple group comparisons; *=p<0.05, ***=p<0.001. (B) Caco2 cells viability the day of plating (day 0) and three days after plaiting (day 3). The measure is considered a readout of cell proliferation. […] Data represent mean±SEM, n=3 wells. For statistical analyses, a two-way analysis of variance was used, followed by the Bonferroni correction for multiple group comparisons; *=p<0.05, **=p<0.01. (C, D, E) Representative flow cytometric analyses of apoptosis in synchronized Caco2 (C), SKCO1 (D) and C80 (E) cells. […] Data represent mean±SEM, n=4 wells pooled from two independent experiments. For statistical analyses, an unpaired Student's t-test was used; *=p<0.05, **=p<0.01. […]
Stained cells were analyzed using a FACSCanto II cytofluorimeter and processed with BD FACSDIVA Software v8.1 (BD Biosciences, Milan, IT; http://www.bdbiosciences.com/instruments/software/facsdiva/index.jsp/ RRID:SCR_001456), acquiring at least 10,000 events per sample or 25,000 cells per sample for cell cycle experiments.

Caco2 cells [2] = assay: Mitochondrial ATP levels in Caco2 cells; format: cell-based, human; conditions: FLVCR1a-silenced vs scramble shRNA Caco2 cells
Text: (A, C, E) Activities of the mitochondrial electron transport chain complexes I-IV. FLVCR1a-silenced Caco2 (A), SKCO1 (C) or C80 cells (E) are compared to cells expressing a scramble shRNA. Results were expressed as nmol NAD^+/min/mg mitochondrial protein for complex I, nmol reduced cytochrome c/min/mg mitochondrial protein for complexes II-III, nmol oxidized cytochrome c/min/mg mitochondrial protein for complex IV. Data represent mean±SEM, n=3. For statistical analyses, an unpaired Student's t-test was used; *=p<0.05, **=p<0.01. (B, D, F) Mitochondrial ATP levels measured by a bioluminescent assay kit. FLVCR1a-silenced Caco2 (B), SKCO1 (D) or C80 cells (F) are compared to cells expressing a scramble shRNA. Results are expressed as nmol/mg mitochondrial proteins. […] Results were expressed as nmol NAD^+/min/mg mitochondrial protein for complex I, nmol reduced cytochrome c/min/mg mitochondrial protein for complexes II-III, nmol oxidized cytochrome c/min/mg mitochondrial protein for complex IV. […] (H) Mitochondrial ATP levels measured by a bioluminescent assay kit in Caco2 cells overexpressing FLVCR1a (indicated as FLVCR1a+) compared to cells stably transduced with an empty vector. Results are expressed as nmol/mg mitochondrial proteins. […]
ATP levels in mitochondria extracts were assessed by the ATP Bioluminescent Assay Kit (Sigma-Aldrich, St. Louis, MO USA, catalog n° FLAA). […]

Substance: FLVCR1a shRNA: shRNA specifically down-regulating FLVCR1a without targeting FLVCR1b; pLKO.1 lentiviral clone TRCN0000059599, antisense SEQ ID No.: 2 (antisense TTGCTAATGATGCTGTACTGG; sense CCAGTACAGCATCATTAGCAA)
- basal apoptosis (Caco2 cells [1]): higher extent of basal apoptosis
- ATP levels in mitochondria (Caco2 cells [2]): significantly higher ATP levels in mitochondria
